How the values were obtained:
HPP-CFC colonies = experiment: Expansion of HPP-CFU, blood cell colony forming assay (Assay Example 3); format: cell-based, human; details: cells cultured with 3 μg/mL compound, 500 cells/dish, 12 days; None = 6
Experimental: The effects of Compounds No. 60 and No. 61 of the present invention on hematopoietic progenitor cells were measured by blood cell colony forming assay. The liquid cell cultures obtained in the presence of Compounds No. 60 or No. 61 at a final concentration of 3 μg/mL in the same manner as in Assay Example 1 were poured into 3.5-cm Petri dishes with MethoCult GF H4435 culture medium (StemCell Technologies) at 500 cells/dish and incubated in a CO2 incubator (5% CO2, 37° C.) for 12 days. The number of HPP-CFC colonies in each plate was counted under a microscope routinely. The assay was carried out at least in triplicate, and the numbers of HPP-CFC colonies were averaged.

SRC = experiment: Transplantation of cell culture into immunodeficient (NOD/SCID) mice, SRC assay (Assay Example 4); format: in vivo; details: CD34^+ cells cultured 1 week with 3 μg/mL Compound No. 60, SCF and Flt-3, 8 weeks after transplantation, vs uncultured CD34^+ cells, FIG. 2
Experimental: Human cord blood-derived CD34^+ cells were cultured for 1 week in StemSpan SFEM (StemCell Technologies) containing SCF (Peprotech) at a final concentration of 100 ng/mL and Flt-3 (Wako Pure Chemical Industries) at a final concentration of 100 ng/mL in the presence of TPO (Peprotech) at a final concentration of 20 ng/mL or Compound No. 60 at a final concentration of 3 μg/mL in the same manner as in Assay Example 1. The cell culture were transplanted into at least five 7- to 8-week-old NOD/SCID mice by tail vein injection at 4×10^4 cells/mouse in terms of the initial number of CD34^+ cells after a sublethal dose of irradiation (2.5 Gy). Eight weeks after the transplantation, the mice were killed, and the bone marrow cells were collected from both thighbones. Subsequently, the bone marrow cells were stained with a human CD45 antibody (APC, Becton, Dickinson and Company), then washed with PBS(−) containing 2% (v/v) FBS and stained with propidium iodide (Sigma-Aldrich Japan) added to a final concentration of 5 μg/mL. The stained cells were analyzed with a flow cytometry to determined the proportion of human CD45^+ cells in the bone marrow cells. […]

CD34^+ cells = experiment: Expansion of CD34+ cells using human cord blood-derived CD34+ cells (Assay Example 1); format: cell-based; details: 100 ng/mL SCF, 7 days, based on the number of CD34^+ cells in the absence of compound
Experimental: (§1) Human cord blood-derived CD34^+ cells were purchased from Lonza and plated on a 24-well plate (Corning) (10000 cells/1 mL/well). As the culture medium, StemSpan SFEM (StemCell Technologies) containing 100 ng/mL SCF (Wako Pure Chemical Industries) was used, and one of Compounds No. 1 to 72 dissolved in dimethyl sulfoxide was added in an amount of 0.1% (v/v) to a final concentration of 1 or 3 μg/mL. As a positive control, TPO (PeproTech) was used at a final concentration of 10 ng/mL.
(§2) After the cells were incubated in liquid culture at 37° C. for 7 days in a CO2 incubator (5% CO2), the number of viable cells was counted by trypan blue assay. The number of CD34^+CD38^− cells was calculated as follows. After the incubation, the cells in the liquid culture was stained with a CD34 antibody (APC, Becton, Dickinson and Company) and a CD38 antibody (PE, Becton, Dickinson and Company), then washed with PBS(−) containing 2% (v/v) FBS and stained with propidium iodide (Sigma-Aldrich Japan) added to a final concentration of 5 μg/mL. The stained cells were analyzed with a BD FACSCANTO™ II flow cytometer (Becton, Dickinson and Company) to determined the proportions of CD34^+ cells and CD34^+CD38^− cells, which was multiplied by the number of viable cells to calculate the numbers of CD34^+ cells and CD34^+CD38^− cells.
(§3) The expansion efficiencies in the presence of 1 or 3 μg/mL of compounds based on the number of CD34^+ cells in the absence of them are shown in Tables 3-1 and 3-2 on a scale of A for expansion efficiencies of 6 or greater, B for expansion efficiencies of at least 4 and less than 6, and C for expansion efficiencies of at least 2 and less than 4. The expansion efficiencies in the presence of 1 or 3 μg/mL of compounds based on the number of CD34^+CD38^− cells in the absence of them are shown in Tables 4-1 and 4-2 on a scale of A for expansion efficiencies of 10 or greater, B for expansion efficiencies of at least 5 and less than 10, and C for expansion efficiencies of at least 3 and less than 5. Further, in Table 3, the compounds with an expansion efficiency twice or more greater than that of TPO are marked with O.

CD34^+CD38^− cells = experiment: Expansion of CD34+CD38- cells using human cord blood-derived CD34+ cells (Assay Example 1); format: cell-based; details: for Comparison with TPO: CD34^+CD38^− cells; for Expansion efficiency (CD34^+CD38^− cells): 100 ng/mL SCF, 7 days, based on the number of CD34^+CD38^− cells in the absence of compound
Experimental: as §1, §2, §3

[1] = 3 μg/mL compound vs TPO 10 ng/mL

`CC(=NNC(=O)c1ccc(C(=O)NCc2ccc(C(=O)NCCOCCO)cc2)s1)c1csc(-c2ccc(C(C)(C)C)cc2)c1O` [Compound No. 60] was tested, and the “Number of HPP-CFC colonies” value (HPP-CFC colonies) was 25, the “SRC expanding effect (proportion of human CD45^+ cells in bone marrow)” value (SRC) was “excellent SRC expanding effect” and the “Expansion efficiency (CD34^+ cells)” value (CD34^+ cells; 3 μg/mL compound) was “B (B for expansion efficiencies of at least 4 and less than 6)”. The “Comparison with TPO” value (CD34^+CD38^− cells; [1]) was “∘” and the “Expansion efficiency (CD34^+CD38^− cells)” value (CD34^+CD38^− cells; 3 μg/mL compound) was “A (A for expansion efficiencies of 10 or greater)”.

In the case of `CC(=NNC(=O)c1ccc(C(=O)NCc2ccc(C(=O)NCCOCCO)cc2)s1)c1csc(-c2ccc(Br)cc2)c1O` [compound 61], the “Number of HPP-CFC colonies” value (HPP-CFC colonies) is reported as 14, the “Expansion efficiency (CD34^+ cells)” value (CD34^+ cells; 3 μg/mL compound) is reported as “A (A for expansion efficiencies of 6 or greater)” and the “Comparison with TPO” value (CD34^+CD38^− cells; [1]) is reported as “∘”. For the same molecule, the “Expansion efficiency (CD34^+CD38^− cells)” value (CD34^+CD38^− cells; 3 μg/mL compound) was “A (A for expansion efficiencies of 10 or greater)”.

In the case of `CC(=NNC(=O)c1ccc(C(=O)NCc2ccc(CC(N)=O)cc2)s1)c1csc(-c2ccc(C(C)(C)C)cc2)c1O` [compound 67], the “Expansion efficiency (CD34^+ cells)” value (CD34^+ cells; 1 μg/mL compound) is reported as “B (B for expansion efficiencies of at least 4 and less than 6)”, the “Comparison with TPO” value (CD34^+CD38^− cells; 1 μg/mL compound vs TPO 10 ng/mL) is reported as “∘” and the “Expansion efficiency (CD34^+CD38^− cells)” value (CD34^+CD38^− cells; 1 μg/mL compound) is reported as “A (A for expansion efficiencies of 10 or greater)”.

`CC(=NNC(=O)c1ccc(C(=O)NCc2ccc(C(=O)NCCN3CCOCC3)cc2)s1)c1csc(-c2ccc(Cl)c(Cl)c2)c1O` [compound 19] was tested, and the “Expansion efficiency (CD34^+ cells)” value (CD34^+ cells; 3 μg/mL compound) was “C (C for expansion efficiencies of at least 2 and less than 4)” and the “Expansion efficiency (CD34^+CD38^− cells)” value (CD34^+CD38^− cells; 3 μg/mL compound) was “A (A for expansion efficiencies of 10 or greater)”.

For `CC(=NNC(=O)c1ccc(C(=O)NCc2ccc(C(=O)NCCOCCO)cc2)s1)c1csc(-c2ccc(Cl)c(Cl)c2)c1O` [compound 59], the “Expansion efficiency (CD34^+ cells)” value (CD34^+ cells; 3 μg/mL compound) was “B (B for expansion efficiencies of at least 4 and less than 6)”, the “Comparison with TPO” value (CD34^+CD38^− cells; [1]) was “∘” and the “Expansion efficiency (CD34^+CD38^− cells)” value (CD34^+CD38^− cells; 3 μg/mL compound) was “A (A for expansion efficiencies of 10 or greater)”.

`CC(=NNC(=O)c1ccc(C(=O)NCc2ccc(C(=O)NCCOCCO)cc2)s1)c1csc(-c2ccc(Cl)cc2)c1O` [compound 63] was tested, and the “Expansion efficiency (CD34^+ cells)” value (CD34^+ cells; 3 μg/mL compound) was “A (A for expansion efficiencies of 6 or greater)”, the “Comparison with TPO” value (CD34^+CD38^− cells; [1]) was “∘” and the “Expansion efficiency (CD34^+CD38^− cells)” value (CD34^+CD38^− cells; 3 μg/mL compound) was “A (A for expansion efficiencies of 10 or greater)”.

With `CC(=NNC(=O)c1ccc(C(=O)NCc2ccc(C(=O)NCCO)cc2)s1)c1csc(-c2ccc(Br)cc2)c1O` [compound 15] the “Expansion efficiency (CD34^+ cells)” value (CD34^+ cells; 3 μg/mL compound) was “A (A for expansion efficiencies of 6 or greater)”, the “Comparison with TPO” value (CD34^+CD38^− cells; [1]) was “∘” and the “Expansion efficiency (CD34^+CD38^− cells)” value (CD34^+CD38^− cells; 3 μg/mL compound) was “A (A for expansion efficiencies of 10 or greater)”.
